According to patent publication US20180325889A1, “IMMUNOREGULATORY AGENTS” (FLEXUS BIOSCIENCES, INC., priority 2014, published 2018):

target: T1, human IDO1/HEK293 cells (Homo sapiens, UniProt P14902); assay: HEK Human IDO-1 cell-based IDO inhibition assay (kynurenine production); conditions: HEK293 cells stably expressing human IDO1, 20 hours incubation, absorbance at 490 nm; read-out: HEK Human IDO-1 Bio Activity (IDO IC50)
T1 construct: expressed in transfected cells
Procedure: They were cultured in medium (DMEM with 10% FBS) containing 1 mg/ml G418 for two weeks.
The human IDO1/HEK293 cells were seeded at 10,000 cells per 50 μL per well with RPMI/phenol red free media contains 10% FBS in a 384-well black wall clear bottom tissue culture plate (Matrix Technologies LLC) 100 nL of certain concentration of compound was then added to each well using ECHO liquid handling systems. The cells were incubated for 20 hours in 37° C. incubator with 5% CO2.
The compound treatments were stopped by adding trichloroacetic acid (Sigma-Aldrich) to a final concentration at 0.2%. The cell plate was further incubated at 50° C. for 30 minute. The equal volume supernatant (20 μL) and 0.2% (w/v) Ehrlich reagent (4-dimethylaminobenzaldehyde, Sigma-Aldrich) in glacial acetic acid were mixed in a new clear bottom 384-well plate. This plate was then incubated at room temperature for 30 minute. The absorbance at 490 nm was measured on Envision plate reader.

T1 sequence (P14902 whole entry): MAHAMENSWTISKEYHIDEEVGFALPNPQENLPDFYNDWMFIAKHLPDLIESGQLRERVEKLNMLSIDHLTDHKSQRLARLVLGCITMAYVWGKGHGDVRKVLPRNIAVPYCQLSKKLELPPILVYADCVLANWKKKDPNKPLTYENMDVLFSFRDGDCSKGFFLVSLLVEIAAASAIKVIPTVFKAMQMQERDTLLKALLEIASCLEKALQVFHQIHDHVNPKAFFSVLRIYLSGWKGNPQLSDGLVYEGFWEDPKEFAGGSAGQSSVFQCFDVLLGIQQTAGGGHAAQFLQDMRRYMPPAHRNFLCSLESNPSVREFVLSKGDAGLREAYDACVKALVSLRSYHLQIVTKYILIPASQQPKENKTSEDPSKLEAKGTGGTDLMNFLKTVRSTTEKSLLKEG

IC50 | SMILES
< 2000 nM | CC1(CNC(=O)c2ccc(-c3ccccc3)cc2)CCN(c2ccnc(C(F)(F)F)c2)CC1 [Example 228, N-((4-Methyl-1-(2-(trifluoromethyl)pyridin-4-yl)piperidin-4-yl)methyl)-[1,1′-biphenyl]-4-carboxamide]
< 2000 nM | C[C@@H](NC(=O)c1ccc(-c2ccc(S(C)(=O)=O)nc2)cc1)[C@H]1CC[C@@H](c2ccnc3ccc(F)cc32)CC1 [Example 237, N-((R)-1-((1s,4S)-4-(6-fluoroquinolin-4-yl)cyclohexyl)ethyl)-4-(6-(methylsulfonyl)pyridin-3-yl)benzamide]
< 50 nM | C[C@@H](NC(=O)c1ccc(-c2cncnc2)cc1)[C@H]1CC[C@@H](c2ccnc3ccc(F)cc32)CC1 [Example 234, N-((R)-1-((1s,4S)-4-(6-fluoroquinolin-4-yl)cyclohexyl)ethyl)-4-(pyrimidin-5-yl)benzamide]
< 250 nM | Cc1c(C2CCC(C(C)NC(=O)c3ccc(-c4ccccc4)cc3)CC2)ccnc1F (single isomer, unassigned) [Example 224, N-(1-(4-(2-fluoro-3-methylpyridin-4-yl)cyclohexyl)ethyl)-[1,1′-biphenyl]-4-carboxamide]
< 50 nM | C[C@@H](NC(=O)c1ccc(-c2cn(C)cn2)cc1)[C@H]1CC[C@@H](c2ccnc3ccc(F)cc32)CC1 [Example 235, N-((R)-1-((1s,4S)-4-(6-fluoroquinolin-4-yl)cyclohexyl)cthyl)-4-(1-methyl-1H-imidazol-4-yl)benzamide]
< 50 nM | CCC(NC(=O)c1ccc(-c2ccccc2)cc1)[C@H]1CC[C@@H](c2ccnc3ccc(C(F)(F)F)cc32)CC1 (mixture of isomers) [Example 230, N-(1-((1s,4s)-4-(6-(trifluoromethyl)quinolin-4-yl)cyclohexyl)propyl)biphenyl-4-carboxamide]
< 50 nM | Cc1c(C2CCC(C(C)NC(=O)c3ccc(-c4ccccc4)cc3)CC2)ccnc1F (single isomer, unassigned) [Example 223, N-(1-(4-(2-fluoro-3-methylpyridin-4-yl)cyclohexyl)ethyl)-[1,1′-biphenyl]-4-carboxamide]
< 250 nM | C[C@@H](NC(=O)c1ccc(N2CCOCC2)cc1)[C@H]1CC[C@@H](c2ccnc3ccc(F)cc32)CC1 [Example 246, N-((R)-1-((1s,4S)-4-(6-fluoroquinolin-4-yl)cyclohexyl)ethyl)-4-morpholinobenzamide]
< 2000 nM | CC[C@@H](NC(=O)c1ccc(Cl)cc1)[C@H]1CC[C@@H](c2cnc3ccccc3c2)CC1 (single isomer, unassigned) [Example 203a]
< 50 nM | CCC(NC(=O)c1ccc(Cl)cc1)[C@H]1CC[C@@H](c2ccnc3ccc(C(F)(F)F)cc32)CC1 (stereo partly shown) [Example 254, 4-chloro-N-(1-((1s, 4s)-4-(6-(trifluoromethyl)quinolin-4-yl)cyclohexyl)propyl)benzamide]
< 2000 nM | CC(NC(=O)c1ccc(Cl)cc1)C1CCC(c2ccnc(C(F)(F)F)c2)CC1 (single isomer, unassigned) [Example 215, 4-chloro-N-(1-(4-(2-(trifluoromcthyl)pyridin-4-yl)cyclohcxyl)ethyl)benzamide]
< 250 nM | CC[C@H](NC(=O)c1ccc(Cl)cc1)[C@H]1CC[C@@H](c2cnc3ccccc3c2)CC1 (single isomer, unassigned) [Example 203b]
< 250 nM | COc1ccc(-c2ccc(C(=O)N[C@H](C)[C@H]3CC[C@@H](c4ccnc5ccc(F)cc54)CC3)nc2)cc1F [Example 178, 5-(3-fluoro-4-methoxyphenyl)-N-((R)-1-(cis-4-(6-fluoroquinolin-4-yl)cyclohexyl)ethyl)picolinamide]
< 50 nM | C[C@@H](NC(=O)c1ccc(C#N)cc1)[C@H]1CC[C@@H](c2ccnc3ccc(F)cc32)CC1 [Example 176, 4-cyano-N-((R)-1-(cis-4-(6-fluoroquinolin-4-yl)cyclohexyl)ethyl)benzamide]

The next lines start with the compound.

SMILES | IC50
CCC(NC(=O)c1ccc(C#N)cc1)C1CCC(c2ccnc3ccc(F)cc23)CC1 (single isomer, unassigned) [Example 165b, 4-Cyano-N-(1-(4-(6-fluoroquinolin-4-yl)cyclohexyl)propyl)benzamide] | < 50 nM
Fc1ccc2nccc([C@H]3CC[C@@H](NCc4ccccc4)CC3)c2c1 [Example 131, cis-N-Benzyl-4-(6-fluoroquinolin-4-yl)cyclohexanamine] | < 250 nM
C[C@@H](NC(=O)c1ccc(-c2ccccc2)cc1)[C@H]1CC[C@@H](c2ccnc3ccc(F)cc32)CC1 [Example 70, N—((R)-1-((1s,4S)-4-(6-fluoroquinolin-4-yl)cyclohexyl)ethyl)-[1,1′-biphenyl]-4-carboxamide] | < 50 nM
CCC(NC(=O)c1ccc(Cl)cc1)[C@H]1CC[C@@H](Oc2ccnc3ccccc23)CC1 (stereo partly drawn) [Example 80, 4-Chloro-N-(1-(cis-4-(quinolin-4-yloxy)cyclohexyl)propyl)benzamide] | < 2000 nM
C[C@@H](NC(=O)c1cc(Cl)cc(Cl)c1)[C@H]1CC[C@@H](c2ccnc3ccc(F)cc32)CC1 [Example 66, 3,5-dichloro-N-((R)-1-((1s,4S)-4-(6-fluoroquinolin-4-yl)cyclohexyl)ethyl)benzamide] | < 50 nM
C[C@@H](NC(=O)c1cccc(-c2ccccc2)c1)[C@H]1CC[C@@H](c2ccnc3ccc(F)cc32)CC1 [Example 61, N-((R)-1-((1s,4S)-4-(6-fluoroquinolin-4-yl)cyclohexyl)ethyl)-[1,1′-biphenyl]-3-carboxamide] | < 50 nM
Cc1cccc(C(=O)N[C@H](C)[C@H]2CC[C@@H](c3ccnc4ccc(F)cc43)CC2)c1 [Example 50, N-((R)-1-((1s,4S)-4-(6-fluoroquinolin-4-yl)cyclohexyl)ethyl)-3-methyl benzamide] | < 50 nM
C[C@@H](NC(=O)c1ccccc1F)[C@H]1CC[C@@H](c2ccnc3ccc(F)cc32)CC1 [Example 54, 2-fluoro-N-((R)-1-((1s,4S)-4-(6-fluoroquinolin-4-yl)cyclohexyl)ethyl)benzamide] | < 50 nM
O=C(Cc1ccc(Cl)cc1)N[C@H]1CC[C@@H](c2ccnc3ccc(F)cc32)CC1 [Example 147, 2-(4-chlorophenyl)-N-(cis-4-(6-fluoroquinolin-4-yl)cyclohexyl)acetamide] | < 2000 nM
CCC(NC(=O)c1ccc(Cl)cc1)C1CCC(c2ccnc3ccc(F)cc23)CC1 (single isomer, unassigned) [Example 164c, 4-Chloro-N-(1-(4-(6-fluoroquinolin-4-yl)cyclohexyl)propyl)benzamide] | < 50 nM
O=C(Nc1ccc(F)cc1)NC1CCN(c2ccnc3ccc(F)cc23)CC1 [Example 93, 1-(4-Fluorophenyl)-3-(1-(6-fluoroquinolin-4-yl)piperidin-4-yl)urea] | < 2000 nM
O=C(Nc1ccc(F)cc1F)N[C@H]1CC[C@H](c2ccnc3ccc(F)cc32)CC1 [Example 122, 1-(2,4-difluorophenyl)-3-(trans-4-(6-fluoroquinolin-4-yl)cyclohexyl)urea] | < 250 nM
Cc1ccc(S(=O)(=O)N[C@H](C)[C@H]2CC[C@@H](c3ccnc4ccc(F)cc43)CC2)cc1 [Example 41, N-((R)-1-((1s,4S)-4-(6-fluoroquinolin-4-yl)cyclohexyl)ethyl)-4-methylbenzenesulfonamide] | < 250 nM
Cc1ccc(C(=O)NCC2CCN(c3ccnc4ccc(F)cc34)CC2)cc1 [Example 86, N-((1-(6-Fluoroquinolin-4-yl)piperidin-4-yl)methyl)-4-methylbenzamide] | < 250 nM
